Source: patent publication US20030129629A1, “Methods and compositions for the identification, assessment, prevention, and therapy of human cancers” (Millennium Pharmaceuticals, Inc., priority 2000, published 2003)
Read-outs that look alike come from different tables or passages of the source.

Tests used:
[1] = system: 60 cancer cell lines (NCI 60 cancer cell line series); assay: NCI-DTP in vitro cancer screen, sulforhodamine B (SRB) growth inhibition, 48 hour exposure; format: cell-based, human
In short: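 Potency is given as mean −log{GI50} from dose–response curves, manually binned into Low, Medium or High sensitivity. Sixty NCI-DTP tumour lines were treated 48 h with a duplicate, five-dose, ten-fold dilution series, and growth read by SRB staining of cell mass.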

[2] = system: 60 cancer cell lines (NCI 60 cancer cell line series); conditions: cited from earlier work

With `O=c1[nH]cc(F)c(=O)[nH]1` [5-Fluorouracil] the “classification of cell line as Low(1), Medium(2), High(3) sensitivity to compound” value (“classification of cell line” for short) ([1]; Breast BT-549 CL5013) was 1, the “classification of cell line” value ([1]; Breast HS-578T CL5006) was 1 and the “classification of cell line” value ([1]; Breast MCF7(I) CL5001) was 3. The “classification of cell line” value ([1]; Breast MCF7/ADRr CL5002) was 2, the “classification of cell line” value ([1]; Breast MDA-MB-231 CL5005) was 1 and the “classification of cell line” value ([1]; Breast MDA-MB-435 CL5011) was 2. For the same compound, the “classification of cell line” value ([1]; Breast MDA-N CL5012) was 2, the “classification of cell line” value ([1]; Breast T-47D CL5014) was 2 and the “classification of cell line” value ([1]; CNS SF-268 CL12014) was 2. For the same compound, the “classification of cell line” value ([1]; CNS SF-295 CL12015) was 2, the “classification of cell line” value ([1]; CNS SF-539 CL12016) was 3 and the “classification of cell line” value ([1]; CNS SNB-19 CL12002) was 1. The “classification of cell line” value ([1]; CNS SNB-75(I) CL12005) was 1, the “classification of cell line” value ([1]; CNS U251(I) CL12009) was 2 and the “classification of cell line” value ([1]; Colon COLO-250 CL4010) was 2. For the same compound, the “classification of cell line” value ([1]; Colon HCC-2998 CL4002) was 3, the “classification of cell line” value ([1]; Colon HCT-15 CL4015) was 2 and the “classification of cell line” value ([1]; Colon HCT-116 CL4003) was 3. For the same compound, the “classification of cell line” value ([1]; Colon HT29(I) CL4001) was 2, the “classification of cell line” value ([1]; Colon KM12 CL4017) was 2 and the “classification of cell line” value ([1]; Colon SW-620 CL4009) was 2. The “classification of cell line” value ([1]; Leukemia CCRF-CEM(I) CL7003) was 2, the “classification of cell line” value ([1]; Leukemia HL-60(I) CL7008) was 2 and the “classification of cell line” value ([1]; Leukemia K562(I) CL7005) was 2. The “classification of cell line” value ([1]; Leukemia MOLT-4 CL7006) was 2, the “classification of cell line” value ([1]; Leukemia RPMI-8226(I) CL7010) was 3 and the “classification of cell line” value ([1]; Leukemia SR CL7019) was 2. For the same compound, the “classification of cell line” value ([1]; Melanoma LOX IMVI CL10001) was 2, the “classification of cell line” value ([1]; Melanoma M14 CL10014) was 2 and the “classification of cell line” value ([1]; Melanoma MALME-3M CL10002) was 2. For the same compound, the “classification of cell line” value ([1]; Melanoma SK-MEL-2 CL10005) was 1, the “classification of cell line” value ([1]; Melanoma SK-MEL-28 CL10008) was 2 and the “sensitivity classification Low(1)/Medium(2)/High(3)” value ([1]; NSCLC NCI-H23(I) CL1001) was 2. The “sensitivity classification Low(1)/Medium(2)/High(3)” value ([1]; NSCLC NCI-H332M CL1017) was 2, the “sensitivity classification Low(1)/Medium(2)/High(3)” value ([1]; NSCLC NCI-H460 CL1021) was 3 and the “sensitivity classification Low(1)/Medium(2)/High(3)” value ([1]; NSCLC NCI-H522 CL1003) was 2. The “sensitivity classification Low(1)/Medium(2)/High(3)” value ([1]; Ovarian IGROV1 CL6010) was 2, the “sensitivity classification Low(1)/Medium(2)/High(3)” value ([1]; Ovarian OVCAR-3 CL6001) was 2 and the “sensitivity classification Low(1)/Medium(2)/High(3)” value ([1]; Ovarian OVCAR-4 CL6002) was 2. The “sensitivity classification Low(1)/Medium(2)/High(3)” value ([1]; Ovarian OVCAR-5 CL6003) was 1, the “sensitivity classification Low(1)/Medium(2)/High(3)” value ([1]; Ovarian OVCAR-8 CL6005) was 2 and the “sensitivity classification Low(1)/Medium(2)/High(3)” value ([1]; Ovarian SK-OV-3 CL6011) was 1. For the same compound, the “sensitivity classification Low(1)/Medium(2)/High(3)” value ([1]; Prostate DU-145 CL11003) was 2, the “sensitivity classification Low(1)/Medium(2)/High(3)” value ([1]; Prostate PC-3(I) CL11001) was 2 and the “sensitivity classification Low(1)/Medium(2)/High(3)” value ([1]; Renal 786-0 CL9018) was 2. For the same compound, the “sensitivity classification Low(1)/Medium(2)/High(3)” value ([1]; Renal A498 CL9013) was 2, the “sensitivity classification Low(1)/Medium(2)/High(3)” value ([1]; Renal ACHN CL9023) was 2 and the “sensitivity classification Low(1)/Medium(2)/High(3)” value ([1]; Renal CAKI-1 CL9015) was 3. The “sensitivity classification Low(1)/Medium(2)/High(3)” value ([1]; Renal RXF-393 CL9016) was 2, the “sensitivity classification Low(1)/Medium(2)/High(3)” value ([1]; Renal SN12C CL9008) was 2 and the “sensitivity classification Low(1)/Medium(2)/High(3)” value ([1]; Renal TK10 CL9024) was 1. For the same compound, the “sensitivity classification Low(1)/Medium(2)/High(3)” value ([1]; Renal UO-31 CL9004) was 2, the “−Log (GI50)” value ([2]; Melanoma SK-MEL-2 CL10005) was 3.3 and the “−Log (GI50)” value ([2]; Melanoma SK-MEL-5 CL10007) was 4.9. For the same compound, the “−Log (GI50)” value ([2]; Melanoma SK-MEL-28 CL10008) was 4.5, the “−Log (GI50)” value ([2]; Melanoma UACC-62 CL10020) was 4.9 and the “−Log (GI50)” value ([2]; Melanoma UACC-257 CL10021) was 3.9. For the same compound, the “−Log (GI50)” value ([2]; NSCLC A549/ATCC CL1004) was 5.7, the “−Log (GI50)” value ([2]; NSCLC EKVX CL1008) was 3.3 and the “−Log (GI50)” value ([2]; NSCLC HOP-62 CL1026) was 4.8. The “−Log (GI50)” value ([2]; NSCLC HOP-92 CL1029) was 4.0 and the “−Log (GI50)” value ([2]; NSCLC NCI-H226 CL1013) was 3.6.
